# Assay results: patent publication US20250340577A1, “BETA-LACTOMASE INHIBITORS AND USES THEREOF” (Case Western Reserve University, priority 2021, published 2025)
# Columns and labels:
# [1] = tested on: HUMC1 Abspp; assay: MIC of antibiotics in combination with 10 μg/mL of ceftolozane-like BATSIs; type: cell-based; settings: SULB alone
# [2] = tested on: NDM-1 pHSG298; assay: as above; type: cell-based; settings: IMI alone
# [3] = tested on: blaADC-7; assay: as above; type: cell-based; settings: CAZ alone
# [4] = tested on: blaCMY-2; assay: as above; type: cell-based; settings: CAZ alone
# [5] = tested on: M9 clinical; assay: as above; type: cell-based; settings: CAZ alone
# [6] = tested on: blaPDC-3E221K; assay: as above; type: cell-based; settings: CAZ alone
# [7] = tested on: 18SH; assay: as above; type: cell-based; settings: CAZ alone
# [8] = tested on: Klebsiella pneumonia/FDA-CDC AR-BANK#0098; assay: MIC of MB076 alone or in combination with cefepime or meropenem; type: cell-based; settings: Klebsiella pneumoniae; single agent; read-out: MIC
# Method: (§1) MICs were determined by the Agar microdilution method, following CLSI guidelines. Compounds were tested at fixed concentration of 4 ug/ml in combination with cefepime.
# [9] = tested on: Klebsiella pneumonia/FDA-CDC AR-BANK#0097; assay: as above; type: cell-based; settings: Klebsiella pneumoniae; single agent; read-out: MIC
# Method: as §1
# [10] = tested on: Klebsiella pneumonia/BAA-1705; assay: as above; type: cell-based; settings: Klebsiella pneumoniae, BAA1705; single agent; read-out: MIC
# Method: as §1
# [11] = tested on: K. pneum KPC-Kpn; assay: MIC of antibiotics in combination with 10 μg/mL of ceftolozane-like BATSIs; type: cell-based; settings: FEP alone
# [12] = tested on: blaCTXM-9; assay: as above; type: cell-based; settings: FEP alone
# [13] = tested on: K. pneum blaKPC-2; assay: as above; type: cell-based; settings: FEP alone
# [14] = tested on: K. pneumoniae Kp1; assay: Survival of mice infected IV with K. pneumoniae Kp1; type: in vivo; settings: C57BL/6 mice infected IV with KP1; treated IP at infection, 18 h and 24 h; cefepime 100 mg/kg/dose; cefepime+MB076 at 1:4 ratio
# Method: FIG. 1 illustrates the survival curve of mice infected IV with K. pneumoniae Kp1 and treated with cefepime alone or in combination with MB076. Five male C57BL/6 mice per treatment were infected IV via the tail-vein with 2.1×10^8 CFU/mouse and treated with placebo control (phosphate-buffered saline), cefepime (100 mg/kg/dose), or cefepime and MB076.
# To determine […] activity of MB076 we used cefepime with or without MB076 in mice infected IV with the pan drug resistant strain KP1 and treated IP at the time of infection with placebo control, cefepime, or cefepime+MB076 (at 1:4 ratio). Doses were repeated the following morning and afternoon (18 h and 24 h after infection, respectively). All mice treated with placebo or cefepime alone died, whereas all mice treated with either ratio of MB076 plus cefepime survived.
# [15] = tested on: E. coli 29838; assay: MIC with cefepime, agar microdilution, CLSI; type: cell-based; settings: cefepime alone; CTX-M-14, TEM-1
# Method: (§2) Minimum inhibitory concentration (MIC) of MB076 and derivatives (PCF_038-043) in combination with cefepime.
# as §1
# [16] = tested on: E. coli DH10B pBC-SK PDC-3; assay: MIC with cefepime, agar microdilution, CLSI; type: cell-based; settings: cefepime alone
# Method: as §2, §1
# [17] = tested on: K. pneumoniae original KPC-2; assay: MIC with cefepime, agar microdilution, CLSI; type: cell-based; settings: cefepime alone
# Method: as §2, §1
# [18] = tested on: E. coli ATCC BAA202; assay: MIC with cefepime, agar microdilution, CLSI; type: cell-based; settings: cefepime alone; SHV-1
# Method: as §2, §1
# [19] = tested on: E. coli DH10B pBC-SK SHV-2; assay: MIC with cefepime, agar microdilution, CLSI; type: cell-based; settings: cefepime alone
# Method: as §2, §1
# [20] = tested on: K. pneumoniae 266; assay: MIC with cefepime, agar microdilution, CLSI; type: cell-based; settings: cefepime alone; SHV-5
# Method: as §2, §1
# [21] = tested on: K. pneumoniae ST258 C3; assay: MIC with cefepime, agar microdilution, CLSI; type: cell-based; settings: cefepime alone; KPC-3
# Method: as §2, §1
# [22] = tested on: E. coli DH10B pBC-SK KPC-2; assay: MIC with cefepime, agar microdilution, CLSI; type: cell-based; settings: cefepime alone
# Method: as §2, §1
# [23] = tested on: A. baumannii 0057; assay: MIC with cefepime, agar microdilution, CLSI; type: cell-based; settings: cefepime alone; ADC-7
# Method: as §2, §1
# [24] = tested on: E. coli pLTCF2; assay: MIC with cefepime, agar microdilution, CLSI; type: cell-based; settings: cefepime alone
# Method: as §2, §1
# [25] = tested on: K. pneumoniae ST17; assay: MIC with cefepime, agar microdilution, CLSI; type: cell-based; settings: cefepime alone; KPC-2, TEM, SHV, CTX-M-Group 1
# Method: as §2, §1
# [26] = tested on: K. pneumoniae 427; assay: MIC with cefepime, agar microdilution, CLSI; type: cell-based; settings: cefepime alone; TEM-1, SHV-1, CTX-M-3
# Method: as §2, §1
# [27] = tested on: K. pneumoniae 253; assay: MIC with cefepime, agar microdilution, CLSI; type: cell-based; settings: cefepime alone; TEM-12, SHV-5, CTX-M
# Method: as §2, §1
# [28] = tested on: E. coli DH10B pBC-SK control; assay: MIC with cefepime, agar microdilution, CLSI; type: cell-based; settings: cefepime alone; B-lactamases none
# Method: as §2, §1
# [29] = tested on: E. coli pLTCF1; assay: MIC with cefepime, agar microdilution, CLSI; type: cell-based; settings: cefepime alone; CTX-M group 9
# Method: as §2, §1
# [30] = tested on: E. coli DH10B pBC-SK P99; assay: MIC with cefepime, agar microdilution, CLSI; type: cell-based; settings: cefepime alone
# Method: as §2, §1
# [31] = tested on: K. pneumoniae 255; assay: MIC with cefepime, agar microdilution, CLSI; type: cell-based; settings: cefepime alone; TEM-1, SHV-2
# Method: as §2, §1
# [32] = tested on: K. pneumoniae 34700; assay: MIC with cefepime, agar microdilution, CLSI; type: cell-based; settings: cefepime alone; CTX-M-15, SHV, TEM
# Method: as §2, §1
# [33] = tested on: K. pneumoniae ST258 B5; assay: MIC with cefepime, agar microdilution, CLSI; type: cell-based; settings: cefepime alone; KPC-2
# Method: as §2, §1
smiles,measurement,setting,value
"CC1(C)[C@H](C(=O)O)N2C(=O)C[C@H]2S1(=O)=O [SULB, sulbactam]",MIC of antibiotic,[1],SULB 4 mg/mL
C[C@@H](O)[C@H]1C(=O)N2C(C(=O)O)=C(SCCN=CN)C[C@H]12 [IMI],MIC of antibiotic,[2],IMI 8 mg/mL
"CC(C)(O/N=C(\C(=O)N[C@@H]1C(=O)N2C(C(=O)[O-])=C(C[n+]3ccccc3)CS[C@H]12)c1csc(N)n1)C(=O)O [CAZ, ceftazidime, reference compound]",MIC of antibiotic,[3],CAZ 16 mg/mL
same,MIC of antibiotic,[4],CAZ 128 mg/mL
same,MIC of antibiotic,[5],CAZ >32 mg/mL
same,MIC of antibiotic,[6],CAZ 32 mg/mL
same,MIC of antibiotic,[7],CAZ 64 mg/mL
"CO/N=C(\C(=O)N[C@@H]1C(=O)N2C(C(=O)[O-])=C(C[N+]3(C)CCCC3)CS[C@H]12)c1csc(N)n1 [Cefepime, cefepime, reference compound]",MIC,[8],32 µg/mL
same,MIC,[9],> 32 µg/mL
same,MIC,[10],> 32 µg/mL
same,MIC of antibiotic,[11],FEP 32 mg/mL
same,MIC of antibiotic,[12],FEP 8 mg/mL
same,MIC of antibiotic,[13],16/32
same,Survival of infected mice,[14],died
same,MIC of cefepime,[15],4 µg/mL
same,MIC of cefepime,[16],< 0.25 µg/mL
same,MIC of cefepime,[17],8 µg/mL
same,MIC of cefepime,[18],1 µg/mL
same,MIC of cefepime,[19],4 µg/mL
same,MIC of cefepime,[20],2 µg/mL
same,MIC of cefepime,[21],8 µg/mL
same,MIC of cefepime,[22],8 µg/mL
same,MIC of cefepime,[23],64 µg/mL
same,MIC of cefepime,[24],1 µg/mL
same,MIC of cefepime,[25],64 µg/mL
same,MIC of cefepime,[26],8 µg/mL
same,MIC of cefepime,[27],32 µg/mL
same,MIC of cefepime,[28],< 0.25 µg/mL
same,MIC of cefepime,[29],8 µg/mL
same,MIC of cefepime,[30],< 0.25 µg/mL
same,MIC of cefepime,[31],4 µg/mL
same,MIC of cefepime,[32],32 µg/mL
same,MIC of cefepime,[33],32 µg/mL
